Reference: US7867496B2, “Use of TGF-β antagonists to limit nephrotoxicity of immunosuppressive agents” (Genzyme Corporation, priority 2004, dated 2011)
“Also recorded” adds a separate entry of the source.

Legend:
[1] = tested on: TGF-β mRNA; assay: intrarenal TGF-β mRNA by real-time PCR, TAC study; type: in vivo, rat; details: TAC alone, 90 days post transplantation, with respect to isograft controls
Experimental: (§1) TAC was administered at 0.25 mg/kg i.m. for 90 days; and the anti-TGF-β antibody, 1D11, was administered at 1 mg/kg twice a week. The control antibody used was 13C4.
(§2) RT-PCR was performed using a Bio-Rad iCycler™ system (Bio-Rad, Hercules, Calif.). RNAs were isolated from renal tissues using a kit from Promega (Madison, […].) and reverse-transcribed into cDNAs by using a cDNA synthesis kit from Invitrogen (Carlsbad, Calif.). The specificity of primers was tested by running a regular PCR for 40 cycles at 95° C. for 20 seconds and 60° C. for 1 minute, followed by separating in ethidium bromide containing agarose gels. The real-time PCR was performed using a SYBR Supermix kit (Bio-RAD) (40 cycles at 95° C. for 20 s and 60° C. for 1 minute). The PCR efficiency was examined by serially diluting template cDNA. The melting curve data was collected to check the PCR specificity and proper negative controls were included in each assay. The mRNA level for each gene for each sample was normalized to β-actin mRNA and presented as 2-[(Ct/β-actin-Ct/gene of interest)] as described in Khanna et al. (2005) Nephron Exp. Nephrol., 101:119-126.
(§3) Intrarenal expression of TGF-β, NOX-1 and p22phox was analyzed by RT-PCR in renal tissues from (1) isografts, (2) TAC, (3) TAC+anti-TGF-β antibody, and (3) TAC+control antibody treated animals at 90 days post transplantation. […]

[2] = tested on: NOX-1 mRNA; assay: intrarenal NOX-1 mRNA by real-time PCR, TAC study; type: in vivo, rat; details: TAC alone, 90 days, with respect to isograft controls
Experimental: as §1, §2, §3

[3] = tested on: p22phox mRNA; assay: intrarenal p22phox mRNA by real-time PCR, TAC study; type: in vivo, rat; details: TAC alone, 90 days, with respect to isograft controls
Experimental: as §1, §2, §3

[4] = tested on: RAC-1 mRNA; assay: intrarenal RAC-1 mRNA by real-time PCR, TAC study; type: in vivo, rat; details: TAC alone, 90 days, with respect to isograft controls
Experimental: as §1, §2, §3

[5] = tested on: SOD mRNA; assay: intrarenal SOD mRNA by real-time PCR, TAC study; type: in vivo, rat; details: TAC alone compared to isograft controls
Experimental: as §1, §2
(§4) To further examine the effect of prolonged treatment with TAC on antioxidant genes, intrarenal mRNA expression of SOD and TRX was determined.

[6] = tested on: TRX mRNA; assay: intrarenal TRX mRNA by real-time PCR, TAC study; type: in vivo, rat; details: TAC alone compared to isograft controls
Experimental: as §1, §2, §4

[7] = tested on: p22phox protein; assay: intragraft p22phox protein by Western blot, TAC study; type: in vivo, rat; details: TAC compared to untreated allografts and isograft controls; monohydrate
Experimental: (§5) Frozen tissues were homogenized in ice-cold PBS with 1% Triton X-100, 1 mM phenylmethysulfonyl fluoride, 35 ng/ml pepstatin A and 10 ng/ml leupeptin. After centrifugation, 50 μg: of protein was electrophoresed by SDS PAGE as described in Khanna et al. (2005) Nephron Exp. Nephrol., 101:119-126. Blots were probed with appropriate dilutions of a polyclonal anti-p22phox antibody (RS554, a gift from Marsh Lab, Bozeman, Mont.) or anti-NOX antibody (Santa Cruz Biotechnology, Santa Cruz, Calif.), incubated with a horseradish peroxidase-conjugated secondary antibody at a 1:5,000 dilution, and visualized by enhanced chemiluminescence.
(§6) Expression of p22^phox and NOX-1 proteins was analyzed in kidney tissues from isografts, untreated allografts, and animals treated with TAC. Protein lysates (10 μg) were electrophoresed, transferred to nitrocellulose paper and probed with anti-p22^phox and anti NOX-1 antibodies.

[8] = tested on: NOX-1 protein; assay: intragraft NOX-1 protein by Western blot, TAC study; type: in vivo, rat; details: TAC compared to untreated allografts and isograft controls; monohydrate
Experimental: as §5, §6

[9] = tested on: renal transplant; assay: renal transplant histology, TAC study; type: in vivo, rat; details: TAC alone compared to isografts; monohydrate
Excerpt: A portion of transplanted kidneys from each animal was fixed with formalin and imbedded in paraffin. Hematoxylin and eosin (H&E) and periodic acid schiff (PAS) stainings were used to assess histological changes. Renal histological changes we quantified by standard procedures. The severity of the glomerular injury was scored as described in Khanna et al. (2000) Transplantation, 73:1543-1549. Briefly, in each field, at least 50-60 glomeruli were counted for each specimen and lesions were scored on a five-point scale (0, no proliferation, almost normal histology; 1, about 25% segmental lesion; 2, segmental lesion of greater than 25% but less than 50%; 3, fibrotic lesions with diffuse proliferation; 4, almost completely fibrotic changes). PAS staining was used to determine the extent of extracellular matrix protein accumulation (not scored). Interlobular arteries in H&E-stained slides and lesions were scored.
The slides were mounted with Permount™ for evaluation. Samples from each group were graded for histopathological changes and immunohistochemical staining. The intensity of immunostaining was graded from 0 (no staining) to 4+ (maximum staining). […]
The effect of TAC, TAC+a control antibody and TAC+anti-TGF-β antibody treatment on morphological changes was assessed by histopathological examination in H&E- and PAS-stained thin kidney sections were evaluated.

[10] = tested on: TGF-β protein; assay: intrarenal TGF-β protein immunohistochemistry, TAC study; type: in vivo, rat; details: TAC alone
Experimental: Plasma levels of TGF-β protein were measured as described in Khanna et al. (1999) Transplantation, 67:882-889. Intrarenal protein expression of TGF-β was examined immunohistochemically as essentially as described in Khanna et al. (2000) Transplantation, 73:1543-1549; Khanna et al. (2002) Kidney Intl., 62:2257-63; and Khanna et al. (1999) Transplantation, 67:614-619. Formalin-fixed paraffin-embedded tissues were sliced into fine sections, deparaffinized in xylene and rehydrated in graded ethanol to phosphate-buffered saline (PBS). After blocking endogenous peroxidase activity for 30 minutes with methanol/H2O2 (18:1 vol/vol), nonspecific binding was blocked for 1 hour with 1.5% avidin/biotin diluted in PBS supplemented with 10% normal horse serum and 3% BSA. Tissue sections were incubated overnight at 4° C. with specific primary antibodies (50 μg/ml) in above-mentioned PBS. Following extensive washing in PBS, slides were incubated at room temperature for 1 hour with diluted (1:1,000) biotin-labeled anti-mouse IgG horse anti-serum and washed again extensively in PBS and then in the ABC solution for 30 minutes. The slides were developed for 10 minutes in diaminobenzidine (DAB) and rinsed in water for 10 minutes. The slides were then counterstained with hematoxylin and dehydrated in graded ethanol and xylene.
The slides were mounted with Permount™ for evaluation. […]

[11] = target: TGF-β; details: cited from earlier work

Row | Compound | increase in intrarenal TGF-β mRNA expression [1] | increase in intrarenal NOX-1 mRNA expression [2] | increase in intrarenal p22phox mRNA expression [3] | increase in intrarenal RAC-1 mRNA expression [4] | decrease in intrarenal SOD mRNA expression [5] | decrease in intrarenal TRX mRNA expression [6] | intragraft expression of p22phox protein [7] | intragraft expression of NOX-1 protein [8] | renal histological changes (H&E, PAS) [9] | intrarenal staining for TGF-β protein [10] | Kd ([11]; approximately, binds TGF-β1 only, read-out: antigen affinity) | TGF-β isoform binding specificity ([11]; mammalian isoforms of TGF-β)
1 | C=CC[C@@H]1/C=C(\C)C[C@H](C)C[C@H](OC)[C@H]2O[C@@](O)(C(=O)C(=O)N3CCCC[C@H]3C(=O)O[C@H](/C(C)=C/[C@@H]3CC[C@@H](O)[C@H](OC)C3)[C@H](C)[C@@H](O)CC1=O)[C@H](C)C[C@@H]2OC (relative stereo) [TAC, [3S-[3R*[E (1S*,3S*,4S*)], 4S*,5R*,8S*,9E, 12R*,14R*,15S*,16R*,18S*,19S*,26aR*]]-5,6,8,11,12,13,14,15,16,17,18,19,24,25,26,26a-hexadecahydro-5,19-dihydroxy-3-[2-(4-hydroxy-3-methoxycyclohexyl)-1-methylethenyl]-14,16-dimethoxy-4,10,12,18-tetramethyl-8-(2-propenyl)-15,19-epoxy-3H-pyrido[2,1-c][1,4]oxaazacyclotricosine-1,7,20,21 (4H,23H)-tetrone, monohydrate] | 37 fold | 18 fold | 31 fold | 20 fold | 27 fold | 80 fold | increased intragraft expression; also recorded: elevated | increased intragraft expression; also recorded: elevated | marked histological changes; also recorded: statistically significant (p<0.036) difference | increased staining for TGF-β protein | – | –
2 | CAT192: fully human recombinant anti-TGF-β antibody generated by phage display; specifically binds TGF-β1 only | – | – | – | – | – | – | – | – | – | – | ~8.4 pM | specifically binds TGF-β1 only
